Results reported in patent publication US20250154126A1, “CRYSTALLINE FORM OF SULFUR-CONTAINING ISOINDOLINE DERIVATIVE” (JIANGSU HENGRUI PHARMACEUTICALS CO., LTD., priority 2022, published 2025).
Each block holds one compound with its values, some of them ahead of it.

What was measured:
Format in all cases: physicochemical
[1] = Influencing factor stability of crystal forms (light, high temperature, high humidity, 30 days); conditions: for change in purity under 60° C. and light: 60° C. and light (4500 Lux); for change in purity under 60° C. and light / physicochemical stability under high humidity: open; for physicochemical stability under high humidity: high humidity conditions of 75% and 92.5%; for crystal form after influencing factor experiments: light, high temperature, high humidity
Method: Each crystal form was spread out in an open exposure setup, and the stability of the samples under conditions of light (4500 Lux), high temperature (40° C., 60° C.), and high humidity (RH 75 RH 92.5%) was examined separately. The sampling inspection period was 30 days.

[2] = Hygroscopicity study of crystal forms (dynamic vapour sorption, 25° C.); conditions: for Crystal form after hygroscopicity test: two cycles
Text: According to the “9103 Guideline for Hygroscopicity for Pharmaceuticals” in Part IV of the 2015 edition of the Chinese Pharmacopoeia, descriptions of hygroscopic characteristics and definitions of hygroscopic weight gain are as follows; • Deliquescent: Absorbs sufficient moisture to form a liquid; • Extremely hygroscopic: Hygroscopic weight gain is no less than 15%; • Hygroscopic: Hygroscopic weight gain is less than 15% but no less than 2%; • Slightly hygroscopic: Hygroscopic weight gain is less than 2% but no less than 0.2%; • Non-hygroscopic or nearly non-hygroscopic: Hygroscopic weight gain is less than 0.2%.
Compound of Formula (I) (Oct. 15, 2021, Nanjing) 03881 Using the Surface Measurement Systems advantage 2, at a temperature of 25° C., and starting at a humidity of 50%, the humidity range was examined from […] to 95%, with increments of 10%. The criterion for evaluation was that the mass change dM/dT at each gradient was less than 0.002%, TMAX was 360 min, and the process was cycled twice.

[3] = Long-term/accelerated stability of crystal forms (25° C. 60% RH and 40° C. 75% RH); conditions: for physical and chemical stability, long-term accelerated conditions: 25° C. 60% RH and 40° C. 75% RH, six months
Method: The crystal forms D, E, Q, and U of the compound of formula (I) were respectively placed under conditions of 25° C. with 60% RH and 40° C. with 75% RH to evaluate their stability.

[4] = 92.5% RH, 30 days, open exposure
[5] = light 4500 Lux, 30 days, open exposure

Color and character ([1]; 40° C., 9 days, open exposure): White solid | Purity % ([1]; 40° C., 9 days, open exposure, listed as Free crystal form D): 97.3% | Color and character ([1]; 40° C., 15 days, open exposure): White solid | Purity % ([1]; 40° C., 15 days, open exposure, listed as Free crystal form D): 96.7% | Color and character ([1]; 40° C., 30 days, open exposure): White solid | Purity % ([1]; 40° C., 30 days, open exposure, listed as Free crystal form D): 95.8% | change in purity under 60° C. and light ([1]; 30 days): slight decrease in purity | Color and character ([1]; 60° C., 9 days, open exposure): White solid | Purity % ([1]; 60° C., 9 days, open exposure, listed as Free crystal form D): 96.6% | Color and character ([1]; 60° C., 15 days, open exposure): White solid | Purity % ([1]; 60° C., 15 days, open exposure, listed as Free crystal form D): 95.8% | Color and character ([1]; 60° C., 30 days, open exposure): White solid | Purity % ([1]; 60° C., 30 days, open exposure, listed as Free crystal form D): 93.9% | Color and character ([1]; 75% RH, 9 days, open exposure): White solid | Purity % ([1]; 75% RH, 9 days, open exposure, listed as Free crystal form D): 97.8% | Color and character ([1]; 75% RH, 15 days, open exposure): White solid | Purity % ([1]; 75% RH, 15 days, open exposure, listed as Free crystal form D): 97.7% | Color and character ([1]; 75% RH, 30 days, open exposure): White solid | Purity % ([1]; 75% RH, 30 days, open exposure, listed as Free crystal form D): 97.9% | Color and character ([1]; 92.5% RH, 9 days, open exposure): White solid | Purity % ([1]; 92.5% RH, 9 days, open exposure, listed as Free crystal form D): 97.8% | Color and character ([1]; 92.5% RH, 15 days, open exposure): White solid | Purity % ([1]; 92.5% RH, 15 days, open exposure, listed as Free crystal form D): 97.9% | Color and character [1, 4]: White solid | Purity % ([1]; 92.5% RH, 30 days, open exposure, listed as Free crystal form D): 97.8% | Color and character ([1]; Onset, 0 days): White solid | Purity % ([1]; Onset, 0 days, listed as Free crystal form D): 97.9% | physicochemical stability under high humidity ([1]; 30 days): good physicochemical stability | Color and character ([1]; light 4500 Lux, 9 days, open exposure): White solid | Purity % ([1]; light 4500 Lux, 9 days, open exposure, listed as Free crystal form D): 97.3% | Color and character ([1]; light 4500 Lux, 15 days, open exposure): White solid | Purity % ([1]; light 4500 Lux, 15 days, open exposure, listed as Free crystal form D): 96.8% | Color and character [1, 5]: White solid | Purity % ([1]; light 4500 Lux, 30 days, open exposure, listed as Free crystal form D): 95.4% | crystal form after influencing factor experiments ([1]; 30 days): remain unchanged | Hygroscopic weight change 0.0% RH-95.0% RH [2]: 2.24% | Hygroscopic weight change 20% RH-80% RH [2]: 1.26% | Hygroscopicity class (20% RH-80% RH) [2]: (slightly hygroscopic) | Crystal form after hygroscopicity test [2]: Untransformed | physical and chemical stability, long-term accelerated conditions [3]: good physical and chemical stability | Purity % 1 month ([3]; 25° C., 60% RH): 97.8% | Purity % 2 months ([3]; 25° C., 60% RH): 97.8% | Purity % 3 months ([3]; 25° C., 60% RH): 97.8% | Purity % 1 month ([3]; 40° C., 75% RH): 97.8% | Purity % 2 months ([3]; 40° C., 75% RH): 97.8% | Purity % 3 months ([3]; 40° C., 75% RH): 97.7% | Purity % 6 months ([3]; 40° C., 75% RH): 97.6% | Purity % Onset [3]: 97.9%
Compound: N#Cc1ccc(N2CCC(Sc3ccc(COc4cccc5c4CN([C@H]4CCC(=O)NC4=O)C5=O)cn3)CC2)c(F)c1 [Crystal form D, (S)-4-(4-((5-(((2-(2,6-dioxopiperidin-3-yl)-1-oxoisoindolin-4-yl)oxy)methyl)pyridin-2-yl)thio)piperidin-1-yl)-3-fluorobenzonitrile]

Color and character ([1]; 40° C., 7 days, open exposure): White solid | Purity % ([1]; 40° C., 7 days, open exposure): 99.5% | Color and character ([1]; 40° C., 14 days, open exposure): White solid | Purity % ([1]; 40° C., 14 days, open exposure, listed as Free crystal form Q): 99.4% | Color and character ([1]; 40° C., 30 days, open exposure): White solid | Purity % ([1]; 40° C., 30 days, open exposure, listed as Free crystal form Q): 99.1% | change in purity under 60° C. and light ([1]; 30 days): slight decrease in purity | Color and character ([1]; 60° C., 7 days, open exposure): White solid | Purity % ([1]; 60° C., 7 days, open exposure, listed as Free crystal form Q): 99.3% | Color and character ([1]; 60° C., 14 days, open exposure): White solid | Purity % ([1]; 60° C., 14 days, open exposure, listed as Free crystal form Q): 98.9% | Color and character ([1]; 60° C., 30 days, open exposure): White solid | Purity % ([1]; 60° C., 30 days, open exposure, listed as Free crystal form Q): 98.5% | Color and character ([1]; 75% RH, 7 days, open exposure): White solid | Purity % ([1]; 75% RH, 7 days, open exposure): 99.6% | Color and character ([1]; 75% RH, 14 days, open exposure): White solid | Purity % ([1]; 75% RH, 14 days, open exposure, listed as Free crystal form Q): 99.6% | Color and character ([1]; 75% RH, 30 days, open exposure): White solid | Purity % ([1]; 75% RH, 30 days, open exposure, listed as Free crystal form Q): 99.6% | Color and character ([1]; 92.5% RH, 14 days, open exposure): White solid | Purity % ([1]; 92.5% RH, 14 days, open exposure, listed as Free crystal form Q): 99.6% | Color and character [1, 4]: White solid | Purity % ([1]; 92.5% RH, 30 days, open exposure, listed as Free crystal form Q): 99.5% | Color and character ([1]; Onset, 0 days): White solid | Purity % ([1]; Onset, 0 days, listed as Free crystal form Q): 99.6% | physicochemical stability under high humidity ([1]; 30 days): good physicochemical stability | Color and character ([1]; light 4500 Lux, 7 days, open exposure): White solid | Purity % ([1]; light 4500 Lux, 7 days, open exposure, listed as Free crystal form Q): 99.5% | Color and character ([1]; light 4500 Lux, 14 days, open exposure): White solid | Purity % ([1]; light 4500 Lux, 14 days, open exposure, listed as Free crystal form Q): 98.8% | Color and character [1, 5]: White solid | Purity % ([1]; light 4500 Lux, 30 days, open exposure, listed as Free crystal form Q): 93.9% | crystal form after influencing factor experiments ([1]; 30 days): remain unchanged | Hygroscopic weight change 0.0% RH-95.0% RH [2]: 0.67% | Hygroscopic weight change 20% RH-80% RH [2]: 0.24% | Hygroscopicity class (20% RH-80% RH) [2]: (slightly hygroscopic) | Crystal form after hygroscopicity test [2]: Untransformed | physical and chemical stability, long-term accelerated conditions [3]: good physical and chemical stability | Purity % 1 month ([3]; 25° C., 60% RH): 99.5% | Purity % 2 months ([3]; 25° C., 60% RH): 99.5% | Purity % 3 months ([3]; 25° C., 60% RH): 99.5% | Purity % 1 month ([3]; 40° C., 75% RH): 99.5% | Purity % 2 months ([3]; 40° C., 75% RH): 99.4% | Purity % 3 months ([3]; 40° C., 75% RH): 99.4% | Purity % 6 months ([3]; 40° C., 75% RH): 99.1% | Purity % Onset [3]: 99.6%
Compound: N#Cc1ccc(N2CCC(Sc3ccc(COc4cccc5c4CN([C@H]4CCC(=O)NC4=O)C5=O)cn3)CC2)c(F)c1 [Crystal form Q, (S)-4-(4-((5-(((2-(2,6-dioxopiperidin-3-yl)-1-oxoisoindolin-4-yl)oxy)methyl)pyridin-2-yl)thio)piperidin-1-yl)-3-fluorobenzonitrile]
